Source: ChEMBL document CHEMBL1128120, “Phosphorous acid analogs of L-680,833, a potent monocyclic -lactam inhibitor of human leukocyte elastase” (Bioorg Med Chem Lett, 1995)

Key:
[1] = target: T1, Neutrophil elastase (Homo sapiens) (UniProt P08246); assay: (§1) In vitro inhibition of Human Leukocyte Elastase enzyme in whole blood stimulated with A-23187 (at dose 3 uM); type: functional, tissue-based
T1 sequence (whole entry): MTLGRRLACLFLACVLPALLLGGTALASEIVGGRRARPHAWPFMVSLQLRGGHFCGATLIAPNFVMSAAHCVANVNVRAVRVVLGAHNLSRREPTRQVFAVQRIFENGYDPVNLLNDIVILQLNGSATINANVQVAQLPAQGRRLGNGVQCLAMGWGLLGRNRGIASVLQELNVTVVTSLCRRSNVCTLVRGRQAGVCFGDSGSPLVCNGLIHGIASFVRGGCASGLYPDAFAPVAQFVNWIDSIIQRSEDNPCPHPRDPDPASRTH

[2] = target: T1, Neutrophil elastase (Homo sapiens); assay: Compound was tested for inhibition of Human Leukocyte Elastase enzyme, expressed in term of bimolecular rate constant (Kinact/Ki)
Cricetinae gen. sp. [3] = assay: In vivo inhibition in HLE-induced hamster lung hemorrhage when given orally at 10 mg/kg, 2 hr before challenge by HLE; type: functional; conditions: route oral
Neutrophil elastase = target: T2, Neutrophil elastase (Homo sapiens, UniProt P08246); assay: as §1; type: functional, tissue-based
T2 sequence (P08246 whole entry): T1 sequence (whole entry)

Cricetinae gen. sp. [4] = assay: Effective dose required to in vivo inhibition in HLE-induced hamster lung hemorrhage when given orally 5 hr before the enzyme; type: functional; conditions: po

Compound	inhibition [1] [%]	Ratio [2] [M⁻¹ s⁻¹]	inhibition in vivo at 10 mg/kg (Cricetinae gen. sp. [3]) [%]	IC50 (Neutrophil elastase) [µM]	ED50 (Cricetinae gen. sp. [4]) [mg/kg]
CCC[C@@H](NC(=O)N1C(=O)C(CC)(CC)[C@@H]1Oc1ccc(CP(=O)(O)c2ccccc2)cc1)c1ccc(C)cc1	34	1.17e+06	27	–	–
CCC[C@@H](NC(=O)N1C(=O)C(CC)(CC)[C@@H]1Oc1ccc(CP(=O)(OCC)OCC)cc1)c1ccc(C)cc1	63	1.16e+06	15	–	–
CCC[C@@H](NC(=O)N1C(=O)C(CC)(CC)[C@@H]1Oc1ccc(CP(=O)(O)CCC)cc1)c1ccc(C)cc1	50	906000	15	–	–
C=CCP(=O)(O)Cc1ccc(O[C@@H]2N(C(=O)N[C@H](CCC)c3ccc(C)cc3)C(=O)C2(CC)CC)cc1	48	740000	19	–	–
CCC[C@@H](NC(=O)N1C(=O)C(CC)(CC)[C@@H]1Oc1ccc(CP(C)(=O)O)cc1)c1ccc(C)cc1	55	417000	-59	–	–
CCC[C@@H](NC(=O)N1C(=O)C(CC)(CC)[C@@H]1Oc1ccc(CP(=O)(CCC)OC(OC(=O)CC)C(C)C)cc1)c1ccc(C)cc1 (stereo not given in full)	–	1.05e+06	–	–	–
CCC[C@@H](NC(=O)N1C(=O)C(CC)(CC)[C@@H]1Oc1ccc(CC(=O)O)cc1)c1ccc(C)cc1	–	622000	–	9	1.5
C=CCP(=O)(Cc1ccc(O[C@@H]2N(C(=O)N[C@H](CCC)c3ccc(C)cc3)C(=O)C2(CC)CC)cc1)OCC (stereo not given in full)	51	1.33e+06	64	–	–
CCC[C@@H](NC(=O)N1C(=O)C(CC)(CC)[C@@H]1Oc1ccc(CP(=O)(O)O)cc1)c1ccc(C)cc1	61	217000	17	–	–
